Laboratory results: patent publication US20170121683A1, “ARYL HYDROCARBON RECEPTOR DISRUPTION AND ENHANCEMENT” (priority 2015, published 2017)

Tested on: AHR-target genes (CYP1A1 and CYP1B1) in H9 hESCs
Test: qPCR of AHR downstream gene targets in undifferentiated hESCs
Type: cell-based, human
Conditions: 1 μM SR-1 or 10 nM TCDD for 96 hours, compared to DMSO controls
Protocol: Undifferentiated H9 hESCs were treated with either DMSO (vehicle), 1 μM SR-1, or 10 nM TCDD for 96 hours in hESC growth media. Quantitative polymerase chain reaction analysis for AHR and two downstream effector gene targets (CYP1A1 and CYP1B1) are shown.
FIG. 8A. Non-adherent hematopoietic progenitor cells derived from hESCs were harvested at Day 6+3, Day 6+5, Day 6+7, and Day 6+9 time points and probed for gene expression by quantitative real-time PCR (qPCR). For each gene, Ct values were normalized to GAPDH at each time point and data is presented as relative fold-change as compared to undifferentiated hESCs. […] FIG. 8B Undifferentiated hESCs were cultured in the presence of 1 μM SR-1, 10 nM TCDD, or DMSO vehicle control for 96 hours and probed for gene expression by qPCR. For each gene, Ct values were normalized to GAPDH at each time point and data is presented as relative fold-change as compared to DMSO treated hESCs. n=3, error bars represent SEM, *p<0.05 assessed by two-way ANOVA+Tukey-Kramer multiple comparisons post-hoc test. FIG. 8C. Both adherent and non-adherent cell fractions treated with either DMSO, SR-1, or TCDD were harvested at Day 6+3, Day 6+6, and Day 6+9 and probed for viability with Sytox Blue Live/Dead Stain. Total percentage of viable cells for each group and time point are plotted. n=3.
H9 human embryonic stem cells (H9 hESCs; University of Wisconsin, Madison, Wis.) were adapted to passage as single cells using TrypLE (Invitrogen, Carlsbad, Calif.) as previously described (Ng et al. Nat. Protoc. 3, 768-76 (2008)). H9 hESCs were maintained on irradiated mouse embryonic fibroblasts in ES cell growth medium including Dulbecco's modified Eagle's medium (DMEM)/Ham's F-12 medium (F12) (Invitrogen) supplemented with 15% Knockout Serum Replacer (Invitrogen), 1 mM L-glutamine (Invitrogen), 0.1 mM β-mercaptoethanol (Sigma Aldrich, St. Louis, Mo.), 1% minimum essential medium nonessential amino acids (Invitrogen), 4 ng/mL basic fibroblast growth factor (R&D Systems Inc., Minneapolis, Minn.), and 1% penicillin-streptomycin (Invitrogen) incubated at 37° C. in a humidified atmosphere containing 5% CO2. Single-cell adapted hESCs were subjected to hemato-endothelial differentiation as spin embryoid bodies (“spin-EBs”), also previously described (Ng et al. Nat. Protoc. 3, 768-76 (2008); Knorr et al. Stem Cells Dev. 22, 1861-9 (2013); Ferrell et al., Stem Cells 33(4), 1130-41 (2015)). […]

Structure (SMILES) | expression of CYP1A1 | expression of CYP1B1
CC(C)n1cnc2c(NCCc3ccc(O)cc3)nc(-c3csc4ccccc34)nc21 [SR-1, StemReginin-1] | reduced expression | reduced expression
Clc1cc2c(cc1Cl)Oc1cc(Cl)c(Cl)cc1O2 [TCDD, 2,3,7,8-tetrachlorodibenzo-p-dioxin] | significantly increased expression | significantly increased expression
